The test system of this assay is PGE2 production. As to the kind of experiment: Rat air-pouch model for acute inflammation (PGE2 in exudate by ELISA). To be noted: oral gavage 0.01 mmol/kg 2 h before carrageenan, exudate 4 h after carrageenan, 6 rats/group. Format: in vivo, Sprague-Dawley rats. As to the method: A study of chromene release is assessed by measurement of PGE2 levels, which are indicative of inflammatory response.
Animals: Sprague-Dawley rats (Charles River Laboratories, R #3234, PO #738990, male, 160-180 g) are received, individually examined, and housed in cages of five rats each. The rats are ear notched for identification purposes.
Compounds and dosing solutions: The vehicle is prepared by dissolving 40 g (2-hydroxypropyl)-[…] making a 25% solution which is filter sterilized (0.2 μm, Nalgene, Cat. 151-4020, lot 1095610). […]
Day 6—Compound administration and carrageenan insult: At commencement of the study, each rat is weighed and sorted into treatment groups of 6 rats/group based upon average weight. […] The pouch is gently massaged, the exudate immediately removed, and exudate volume recorded. […]
Data analysis: The exudate samples are thawed to room temperature and assayed by ELISA for PGE2 (R&D Systems, Cat. KGE004B, lot 307711). Statistical significance of treatments on mean exudate volumes are determined by comparison of means for treatment groups with vehicle group. Mean cytokine concentrations and standard deviations are determined for each group. […] Statistical significance (p-value) is calculated vs control groups by Student's t-Test. […]
A general note: ELISA stands for enzyme-linked immunosorbent assay.

The values that follow come from US20150197500A1, “NO-RELEASING GUANIDINE-CHROMENE CONJUGATES” (Euclises Pharmaceuticals, Inc., priority 2014, published 2015).

Where a name gives a salt, the structure may show the parent alone.

`CC(=O)NC(CCCNC(=N)N)C(=O)OCOC(=O)C1=Cc2cc(Cl)c(C(C)(C)C)cc2OC1C(F)(F)F` (stereo not shown) [Example 33a, trifluoroacetate salt]: the “% Inhibition of PGE2 production relative to control (+/−S.D.)” value was 75.7 (+/−11.9) %.
